# From US10597649B2, “Tau protease compositions and methods of use” (Oligomerix, Inc., priority 2011, dated 2020)
# What was measured:
# [1] = test system: Human α-endorphin peptide; experiment: Cleavage of α-endorphin peptide (HPLC); type: biochemical; conditions: 20 hrs at 37° C.
# Procedure: Human α-endorphin peptide [[…](SEQ ID NO:13) (Abbiotech, LLC, San Diego, Calif., USA)] was incubated at 37° C. for 20 hrs with or without […] tau 4R2N trimer protease, and analyzed by reverse phase HPLC (SystemGold® 32Karat™ LC-CE System, Beckman Coulter, Inc., Indianapolis, Ind., USA) using a linear gradient of acetonitrile in 0.1% TFA, 0-60% acetonitrile on an analytical C18 column (12.5 cm×2.1 mm, 5 μm (Supelco). The peptide was hypothesized to be cut by tau protease because it contains Lys-Ser in its sequence which is found at autocatalytic cleavage sites in tau. Two fragment peaks were produced as predicted by tau 4R2N trimer protease. […] The asterisk indicates an artifactual peak unrelated to the peptide;
# 12 μg of α-endorphin peptide (Anaspec, Fremont, Calif.) was incubated with 1.2 μg of tau 4R/2N trimer in reaction buffer (25 mM Tris-HCl pH 7.4) for 20 hrs at 37° C. Reverse phase HPLC was used to monitor the cleavage of the peptide. […] The asterisk indicates an artifact peak that is derived from the incubation tube.
# [2] = test system: Tau 4R2N (amino acids 335-353) peptide substrate; experiment: Peptide digest HPLC assay of tau protease activity; type: biochemical, human; conditions: with 11 μg tau trimer protease, 20 hr at 37° C.
# Description: N-terminal sequencing of fragments using mass spectrometry identified autoproteolytic cut sites. In particular, cutting at the Lys340-Ser341 (340KS341) cut site occurred readily. Therefore, a 19-amino acid peptide corresponding to amino acids 335G to 353L of tau protein was synthesized that contained the KS cut site (340KS341). The reaction was monitored by reverse-phase high-pressure liquid chromatography (HPLC). […] An asterisk marks a non-specific contaminant that was used as a marker. […] 10 μg of tau peptide 335-353 ([…]) (SEQ ID NO:19) was custom synthesized by Genscript (Piscataway, N.J., USA) and 1 mg was dissolved in 1 mL of buffer (25 mM Tris-HCl pH 7.4). […] 32Karat™ LC-CE System, Beckman Coulter, Inc., (Indianapolis, Ind.)] using a linear gradient of acetonitrile in 0.1% TFA 0-60% acetonitrile on an analytical C18 column (12.5 cm×2.1 mm, 5 μm, (Supelco, Bellefonte, Pa., USA). 30 μg of peptide was incubated without tau protease as a negative control and analyzed with the same method;
# Cleavage of the peptide substrate for tau protease, Tau 4R2N (amino acids 335-353) […] (SEQ ID NO.19), was used to monitor activity using reverse-phase HPLC. […] The large peak in the lower trace indicated intact peptide was greatly diminished in the upper trace and replaced with two smaller peaks F1 and F2 that represent fragments generated by TP-210. […]
# [3] = test system: Tau 4R1N oligomer mixture; experiment: Cleavage of tau 4R1N by tau 4R2N trimer (SDS-PAGE); type: biochemical; conditions: overnight at 37° C.
# Procedure: Tau oligomer formation leads to gain of toxic function and loss of function of tau monomer degraded by tau 4R2N trimer activity. Lane 1: Tau 4R2N monomer (0.1 μg); Lane 2: 1× Sample Buffer without reductant; Lane 3: 4R2N Trimer, no 4R1N; Lane 4:Tau 4R1N, no tau 4R2N trimer; Lane 5: Tau 4R2N trimer:tau 4R1N, 1:10; Lane 6: Tau 4R2N trimer:tau 4R1N trimer, 1:100; Lane 7: Tau 4R2N trimer:tau 4R1N 1:10. […] The arrows indicate fragments of tau 4R1N that are generated from tau 4R2N trimer protease activity. For the upper arrow, the fragments have the same apparent MW between the two isoforms, the lower arrow fragments differ with the fragment from tau 4R1N migrating faster than the fragment from tau 4R2N;
substance,measurement,setting,value
tau 4R2N trimer: purified disulfide-mediated trimer species of recombinant human tau 4R2N,cutting of α-endorphin peptide,[1],cuts α-endorphin peptide
same,completeness of the peptide cleavage reaction,[2],more than 90%
same,cutting of tau 4R1N,[3],cuts tau (4R1N) monomer and tau dimer
